# pIC50: −log10 of the molar value.
# Columns and labels:
# [1] = molecular target: T1, HDAC1 (Homo sapiens, UniProt Q13547); experiment: HDAC-1 immunocapture fluorescent biochemical assay (HeLa lysate); settings: HDAC1 immunocaptured from HeLa extract
# T1 construct: cell extract containing HDAC (HeLa in these experiments); endogenous in cells; host or cells: HeLa cell extract
# Procedure: The HDAC-1 assay represents a novel immunocapture assay procedure. […] The HDAC1 is captured on a protein A coated plate using HDAC1 specific antibody, and is then allowed to react with the substrate.
# This assay in performed in four general steps. In the first step (FIG. 1A), cell extract containing HDAC (HeLa in these experiments) is incubated with (cell signaling) rabbit polyclonal HDAC1 antibody (rabbit IgG antibody is used for background control) to allow binding of the enzyme to the antibody. In the second step, the complexed mixture is added to the protein A covered plate which captures the antibody. In the third step, after washing away unbound proteins, substrate and inhibitor are added and deacetylation is allowed to occur. […] The plate is then read on either Victor or Perkin Elmer Envision system using Umbilliferone filter set.
# • A. HeLa extract complexed with HDAC1 antibody working solution (in DPBS):
# Compound working solution (in HDAC buffer):
# Compounds diluted in assay buffer at 2× Screening concentration. • D. Activator solution:
# Trypsin (10 mg/mL) diluted 1:1600 in assay buffer containing 4 μM TSA.
# Complexing of extract with antibody was carried out at room temperature for 60 min with rocking. Binding of complexes onto protein A plate was carried out at room temperature for 60 min in 50 μL. Reaction was carried out in […], in the protein A plate for 60 minutes at 37° C. 40 μL of the reaction was moved into white ½ area plate for activation and reading.
# • 1. Set PIERCE Protein A plate to block with 150 μof 5% BSA in TB ST for 60 min at room temperature. • 2. […] Dilute complexes further ([…]) by addition of 3.5 mL of PBS (final total volume of 5 mL). • 4. Wash blocked protein A plate prior to complex addition with TBST. • 5. Add 50 μl of diluted complexes to Protein A plate and incubate for 60 min at room temperature. • 6. Wash plate with TB ST. • 7. Add 25 μl of diluted compounds (in HDAC buffer) to each well and incubate for 10 min at room temperature. • 8. […] Move 40 μl of reaction to a white plate and add 20 μl of activator/developer solution, mix thoroughly. • 10. Read plate.
# [2] = molecular target: T2, HDAC2 (Homo sapiens, UniProt Q92769); experiment: HDAC isoform assay, HDAC2; assay type: biochemical; settings: substrate KI-177; read-out: HDAC2, IC50, ELISA (KI-177)
# T2 construct: purchased BioMol
# [3] = molecular target: T3, HDAC3 (Homo sapiens, UniProt O15379); experiment: HDAC isoform assay, HDAC3; assay type: biochemical; settings: substrate KI-177; read-out: HDAC3, IC50, ELISA (KI-177)
# T3 construct: purchased BioMol
# Procedure: The assay measures the ability of a small molecule to inhibit deacetylation of the substrate. Activator reagent recognizes the substrate only if the lysine has been deacetylated.
# This homogeneous assay in performed in the same well without washing steps. The HDAC source, nuclear HeLa extract, is incubated with substrate in the presence of an inhibitor compound. At the end of the reaction time, activator solution, containing Trypsin and TSA, is added to stop the deacetylation reaction, and cleave the amino-coumarin from the deacetylated substrate. The plate is then read on either a Perkin Elmer Victor or Envision system using Umbilliferone filter set. […] The signal is directly proportional to the activity of HDACs and compound inhibition of HDAC is monitored by a decrease in signal.
# [4] = molecular target: T4, HDAC4 (Homo sapiens, UniProt P56524); experiment: HDAC isoform assay, HDAC4; assay type: biochemical; settings: substrate KI-177; read-out: HDAC4, IC50, ELISA (KI-177)
# T4 construct: purchased BioMol
# [5] = molecular target: T5, HDAC9 (Homo sapiens, UniProt Q9UKV0); experiment: HDAC isoform assay, HDAC9; assay type: biochemical
# T5 construct: purchased BioMol
# [6] = tested on: HCT-116 cells; experiment: MTS cell viability assay, HCT-116; assay type: cell-based; settings: Homo sapiens; HCT-116, 72 hr; read-out: HCT-116, IG50, MTS
# Procedure: (§1) The MTS cell viability assay was used to determine the potency of proliferation inhibitor with. MTS measures mitochondrial dehydrogenase activity and serves as surrogate readout for the number of viable cells.
# (§2) For MTS assay, cells were plated in 96-well plates at 2000 cells per well and incubated in the presence of compounds for 72 hr. MTS was added to each well as instructed by manufacture (Promega) and plates were incubated for 4 h at 37° C. The absorbance of each well was measured at 490 nm using a microplate reader.
# [7] = tested on: HH cells; experiment: MTS cell viability assay, HH; assay type: cell-based; settings: Homo sapiens, 72 hr, read-out: HH, IG50, MTS
# Procedure: The MTS cell viability assay was used to determine the potency of proliferation inhibitor with. MTS measures mitochondrial dehydrogenase activity and serves as surrogate readout for the number of viable cells. The protocol described below is based upon the “CellTiter 96 Aqueous Non-Radioactive Cell Proliferation Assay” sold by Promega (Technical Bulletin No. 169).
# as §2
# [8] = tested on: Hut78 cells; experiment: MTS cell viability assay, Hut78; assay type: cell-based; settings: Homo sapiens; Hut78, 72 hr; read-out: Hut78, IG50, MTS
# Procedure: as §1, §2
# [9] = tested on: MJ cells; experiment: MTS cell viability assay, MJ; assay type: cell-based; settings: 72 hr, read-out: MJ, IG50, MTS
# Procedure: as §1, §2
# [10] = molecular target: HDAC5 (Homo sapiens, UniProt Q9UQL6); experiment: HDAC isoform assay, HDAC5
# [11] = molecular target: T6, HDAC6 (Homo sapiens, UniProt Q9UBN7); experiment: HDAC isoform assay, HDAC6
# T6 sequence (Q9UBN7 1-1215): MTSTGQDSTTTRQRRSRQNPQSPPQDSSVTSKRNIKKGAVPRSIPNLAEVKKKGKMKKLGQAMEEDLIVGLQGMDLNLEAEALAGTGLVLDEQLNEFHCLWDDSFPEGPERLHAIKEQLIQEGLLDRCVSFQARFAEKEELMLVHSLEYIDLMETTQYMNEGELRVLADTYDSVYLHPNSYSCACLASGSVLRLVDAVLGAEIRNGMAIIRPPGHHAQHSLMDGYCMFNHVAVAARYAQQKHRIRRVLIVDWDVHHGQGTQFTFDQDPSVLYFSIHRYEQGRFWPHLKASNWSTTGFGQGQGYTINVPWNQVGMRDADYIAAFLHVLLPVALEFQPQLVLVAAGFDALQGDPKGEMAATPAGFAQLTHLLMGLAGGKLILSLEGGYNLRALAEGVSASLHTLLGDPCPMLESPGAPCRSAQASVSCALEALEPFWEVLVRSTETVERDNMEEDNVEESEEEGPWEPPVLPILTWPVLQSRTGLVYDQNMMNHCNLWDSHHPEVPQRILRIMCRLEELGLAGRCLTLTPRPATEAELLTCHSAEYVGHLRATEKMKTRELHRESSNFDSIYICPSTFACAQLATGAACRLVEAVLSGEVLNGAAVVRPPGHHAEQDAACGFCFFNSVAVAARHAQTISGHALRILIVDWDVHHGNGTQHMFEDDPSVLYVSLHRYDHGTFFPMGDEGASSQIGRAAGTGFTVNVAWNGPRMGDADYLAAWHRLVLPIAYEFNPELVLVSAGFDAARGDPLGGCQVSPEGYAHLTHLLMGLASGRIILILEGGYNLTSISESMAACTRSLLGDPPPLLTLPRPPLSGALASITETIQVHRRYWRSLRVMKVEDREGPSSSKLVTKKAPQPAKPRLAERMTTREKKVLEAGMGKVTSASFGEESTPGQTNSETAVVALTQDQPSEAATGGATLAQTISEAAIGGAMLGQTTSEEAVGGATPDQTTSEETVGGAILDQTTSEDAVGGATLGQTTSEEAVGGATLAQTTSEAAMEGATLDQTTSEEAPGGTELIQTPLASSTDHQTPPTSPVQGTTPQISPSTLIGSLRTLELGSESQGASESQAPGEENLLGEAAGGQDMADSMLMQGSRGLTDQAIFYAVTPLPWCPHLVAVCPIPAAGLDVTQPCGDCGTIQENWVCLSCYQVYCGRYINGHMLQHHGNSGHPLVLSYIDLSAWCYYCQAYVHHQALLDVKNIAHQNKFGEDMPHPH
# [12] = molecular target: T7, HDAC8 (Homo sapiens, UniProt Q9BY41); experiment: HDAC isoform assay, HDAC8
# T7 sequence (Q9BY41 1-377): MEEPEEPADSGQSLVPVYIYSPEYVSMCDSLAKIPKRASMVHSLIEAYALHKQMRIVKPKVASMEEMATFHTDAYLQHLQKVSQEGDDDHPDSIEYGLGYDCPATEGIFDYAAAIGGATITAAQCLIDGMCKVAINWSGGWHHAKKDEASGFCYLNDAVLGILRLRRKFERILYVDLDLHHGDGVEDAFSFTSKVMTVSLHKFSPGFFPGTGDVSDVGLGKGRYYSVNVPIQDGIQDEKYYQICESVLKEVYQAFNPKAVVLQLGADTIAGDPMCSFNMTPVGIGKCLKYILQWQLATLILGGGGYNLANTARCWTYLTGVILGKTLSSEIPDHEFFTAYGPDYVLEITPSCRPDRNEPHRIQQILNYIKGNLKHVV
# HDAC5, sequence (Q9UQL6 whole entry, canonical isoform): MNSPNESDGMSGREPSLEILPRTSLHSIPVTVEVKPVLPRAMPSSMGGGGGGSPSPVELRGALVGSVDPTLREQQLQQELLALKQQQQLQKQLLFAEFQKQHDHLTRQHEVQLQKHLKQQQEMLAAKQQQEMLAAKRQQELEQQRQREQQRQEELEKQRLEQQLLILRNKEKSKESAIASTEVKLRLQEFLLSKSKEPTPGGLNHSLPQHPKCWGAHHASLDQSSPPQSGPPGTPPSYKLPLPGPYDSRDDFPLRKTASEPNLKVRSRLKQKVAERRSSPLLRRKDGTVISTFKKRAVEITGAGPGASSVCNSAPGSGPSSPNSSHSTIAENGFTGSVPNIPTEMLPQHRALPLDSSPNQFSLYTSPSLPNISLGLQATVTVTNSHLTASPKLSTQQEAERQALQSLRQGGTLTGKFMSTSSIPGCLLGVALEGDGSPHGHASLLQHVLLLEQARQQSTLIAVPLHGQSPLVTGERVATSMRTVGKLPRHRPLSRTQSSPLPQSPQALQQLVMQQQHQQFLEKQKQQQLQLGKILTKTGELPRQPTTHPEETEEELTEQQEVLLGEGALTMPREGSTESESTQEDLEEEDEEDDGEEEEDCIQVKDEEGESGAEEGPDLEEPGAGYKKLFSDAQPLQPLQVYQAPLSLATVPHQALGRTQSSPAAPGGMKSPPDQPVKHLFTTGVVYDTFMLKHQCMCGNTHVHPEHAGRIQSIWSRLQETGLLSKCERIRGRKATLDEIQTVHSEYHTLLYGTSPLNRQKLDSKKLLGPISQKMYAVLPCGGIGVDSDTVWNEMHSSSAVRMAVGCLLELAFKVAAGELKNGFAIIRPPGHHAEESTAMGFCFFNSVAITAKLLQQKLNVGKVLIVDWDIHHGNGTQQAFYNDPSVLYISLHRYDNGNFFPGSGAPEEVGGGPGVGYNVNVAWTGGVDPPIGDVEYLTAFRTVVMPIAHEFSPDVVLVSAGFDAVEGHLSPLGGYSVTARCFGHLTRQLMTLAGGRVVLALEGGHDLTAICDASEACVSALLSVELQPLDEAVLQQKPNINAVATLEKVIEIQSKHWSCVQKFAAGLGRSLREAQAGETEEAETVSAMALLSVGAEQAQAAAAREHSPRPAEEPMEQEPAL
# T1 sequence (Q13547 whole entry): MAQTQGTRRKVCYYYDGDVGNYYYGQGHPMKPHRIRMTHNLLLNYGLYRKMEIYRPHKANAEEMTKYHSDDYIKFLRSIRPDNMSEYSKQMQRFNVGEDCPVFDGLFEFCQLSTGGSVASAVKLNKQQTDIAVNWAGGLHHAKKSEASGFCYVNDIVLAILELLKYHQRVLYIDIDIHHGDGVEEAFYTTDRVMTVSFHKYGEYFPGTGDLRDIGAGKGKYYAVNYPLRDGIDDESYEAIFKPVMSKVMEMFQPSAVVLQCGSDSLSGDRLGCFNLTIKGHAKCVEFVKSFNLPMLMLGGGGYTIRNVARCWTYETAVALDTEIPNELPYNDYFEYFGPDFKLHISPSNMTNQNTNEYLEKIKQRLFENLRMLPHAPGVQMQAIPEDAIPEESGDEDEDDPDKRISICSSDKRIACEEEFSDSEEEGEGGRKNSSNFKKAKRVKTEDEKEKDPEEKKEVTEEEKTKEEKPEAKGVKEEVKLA
# T2 sequence (Q92769 whole entry, canonical isoform): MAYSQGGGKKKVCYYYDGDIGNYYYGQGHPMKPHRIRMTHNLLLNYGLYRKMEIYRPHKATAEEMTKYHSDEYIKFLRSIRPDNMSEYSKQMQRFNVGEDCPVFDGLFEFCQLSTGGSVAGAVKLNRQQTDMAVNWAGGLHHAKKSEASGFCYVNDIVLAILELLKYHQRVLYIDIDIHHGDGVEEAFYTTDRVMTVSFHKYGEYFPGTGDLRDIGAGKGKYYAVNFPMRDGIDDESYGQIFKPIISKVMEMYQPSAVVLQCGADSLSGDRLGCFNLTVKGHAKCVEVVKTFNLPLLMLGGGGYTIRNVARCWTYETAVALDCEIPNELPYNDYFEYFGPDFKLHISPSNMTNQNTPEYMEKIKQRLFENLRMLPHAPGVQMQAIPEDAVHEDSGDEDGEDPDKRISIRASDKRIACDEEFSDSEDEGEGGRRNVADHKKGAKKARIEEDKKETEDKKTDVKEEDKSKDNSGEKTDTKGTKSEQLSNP
# T5 sequence (Q9UKV0 whole entry, canonical isoform): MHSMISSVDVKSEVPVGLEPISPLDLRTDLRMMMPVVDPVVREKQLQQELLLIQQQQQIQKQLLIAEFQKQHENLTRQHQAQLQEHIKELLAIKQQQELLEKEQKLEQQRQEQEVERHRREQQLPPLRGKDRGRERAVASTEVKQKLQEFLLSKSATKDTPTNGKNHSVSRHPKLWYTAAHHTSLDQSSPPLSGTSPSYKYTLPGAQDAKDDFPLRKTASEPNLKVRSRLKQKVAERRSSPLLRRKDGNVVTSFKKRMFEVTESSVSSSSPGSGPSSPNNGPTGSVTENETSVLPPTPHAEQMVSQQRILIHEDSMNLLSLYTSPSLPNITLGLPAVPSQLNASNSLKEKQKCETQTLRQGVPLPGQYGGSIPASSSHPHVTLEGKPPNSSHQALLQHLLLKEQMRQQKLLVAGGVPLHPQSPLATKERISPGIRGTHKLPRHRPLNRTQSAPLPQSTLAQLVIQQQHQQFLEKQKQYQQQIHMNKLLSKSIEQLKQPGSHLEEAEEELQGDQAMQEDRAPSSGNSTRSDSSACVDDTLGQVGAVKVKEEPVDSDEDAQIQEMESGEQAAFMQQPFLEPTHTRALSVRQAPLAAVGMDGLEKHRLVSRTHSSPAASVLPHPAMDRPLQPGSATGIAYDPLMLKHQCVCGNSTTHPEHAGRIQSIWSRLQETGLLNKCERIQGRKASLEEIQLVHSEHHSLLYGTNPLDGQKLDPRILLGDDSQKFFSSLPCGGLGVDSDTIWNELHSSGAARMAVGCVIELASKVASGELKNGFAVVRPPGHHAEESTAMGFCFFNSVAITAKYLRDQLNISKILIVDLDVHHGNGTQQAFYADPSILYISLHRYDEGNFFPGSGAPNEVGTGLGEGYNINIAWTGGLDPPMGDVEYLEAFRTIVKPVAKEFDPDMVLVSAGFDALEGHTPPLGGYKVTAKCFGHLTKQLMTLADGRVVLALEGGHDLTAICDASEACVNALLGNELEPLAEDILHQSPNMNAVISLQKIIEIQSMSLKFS
# T3 sequence (O15379 whole entry, canonical isoform): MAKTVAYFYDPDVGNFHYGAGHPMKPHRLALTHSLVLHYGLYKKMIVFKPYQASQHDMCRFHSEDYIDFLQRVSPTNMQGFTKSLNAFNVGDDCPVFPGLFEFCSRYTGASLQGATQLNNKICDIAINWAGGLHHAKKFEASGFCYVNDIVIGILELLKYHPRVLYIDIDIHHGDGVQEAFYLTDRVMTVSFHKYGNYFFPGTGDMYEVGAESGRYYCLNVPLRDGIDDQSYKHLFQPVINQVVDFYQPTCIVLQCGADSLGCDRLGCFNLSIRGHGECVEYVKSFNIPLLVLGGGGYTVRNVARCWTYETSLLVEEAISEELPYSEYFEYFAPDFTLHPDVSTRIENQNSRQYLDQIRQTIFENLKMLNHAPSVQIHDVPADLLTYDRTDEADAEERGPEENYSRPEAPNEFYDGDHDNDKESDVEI
# T3 sequence (O75376 395-489 partner limits assumed): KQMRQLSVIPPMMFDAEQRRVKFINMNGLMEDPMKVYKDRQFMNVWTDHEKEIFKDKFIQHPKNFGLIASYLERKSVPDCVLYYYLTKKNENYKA
# T4 sequence (P56524 whole entry, canonical isoform): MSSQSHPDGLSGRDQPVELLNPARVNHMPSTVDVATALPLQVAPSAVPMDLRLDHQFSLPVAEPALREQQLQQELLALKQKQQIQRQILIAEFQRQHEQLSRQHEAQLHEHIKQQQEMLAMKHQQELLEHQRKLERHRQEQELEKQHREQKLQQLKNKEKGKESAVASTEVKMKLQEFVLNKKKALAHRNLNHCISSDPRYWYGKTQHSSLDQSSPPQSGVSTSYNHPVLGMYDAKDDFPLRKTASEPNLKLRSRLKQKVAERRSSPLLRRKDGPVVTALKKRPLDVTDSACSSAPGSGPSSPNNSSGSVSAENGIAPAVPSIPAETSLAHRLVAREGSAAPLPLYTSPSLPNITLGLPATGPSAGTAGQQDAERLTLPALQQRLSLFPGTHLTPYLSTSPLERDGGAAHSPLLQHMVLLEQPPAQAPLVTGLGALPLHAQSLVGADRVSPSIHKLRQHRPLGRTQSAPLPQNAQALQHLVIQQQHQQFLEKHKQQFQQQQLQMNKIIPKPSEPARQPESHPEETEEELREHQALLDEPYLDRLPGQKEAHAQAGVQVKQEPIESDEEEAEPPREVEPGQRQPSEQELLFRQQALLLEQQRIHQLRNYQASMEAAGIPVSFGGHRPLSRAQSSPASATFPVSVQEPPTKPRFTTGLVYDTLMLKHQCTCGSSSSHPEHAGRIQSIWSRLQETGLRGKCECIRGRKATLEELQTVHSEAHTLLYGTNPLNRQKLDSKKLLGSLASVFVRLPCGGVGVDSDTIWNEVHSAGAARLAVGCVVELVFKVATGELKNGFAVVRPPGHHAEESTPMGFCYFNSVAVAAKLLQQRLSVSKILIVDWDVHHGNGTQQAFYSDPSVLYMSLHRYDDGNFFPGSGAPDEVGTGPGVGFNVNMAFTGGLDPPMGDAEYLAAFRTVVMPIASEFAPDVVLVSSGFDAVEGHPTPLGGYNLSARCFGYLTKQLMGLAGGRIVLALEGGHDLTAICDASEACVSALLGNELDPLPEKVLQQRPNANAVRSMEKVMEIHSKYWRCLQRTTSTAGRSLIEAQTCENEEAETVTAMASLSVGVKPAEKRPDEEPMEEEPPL
smiles,measurement,setting,value
"O=C(CCC1CCN(C(=O)c2cn3c4c(cccc24)CCC3)CC1)NO [compound 18, 3-[1-(5,6-dihydro-4H-pyrrolo[3,2,1-ij]quinolin-1-ylcarbonyl)piperidin-4-yl]-N-hydroxypropanamide]",pIC50,[1],7.45
same,pIC50,[2],5.00
same,pIC50,[3],7.53
same,pIC50,[4],7.16
same,pIC50,[5],6.27
same,pIC50,[6],5.94
same,pIC50,[7],6.73
same,pIC50,[8],6.01
same,pIC50,[9],6.41
same,melting point,,110 to 113 °C
same,pIC50,[10],7.04
same,pIC50,[11],6.84
same,pIC50,[12],5.30
